Experimental findings from publication PMC6349869, “The palladacycle complex AJ-5 induces apoptotic cell death while reducing autophagic flux in rhabdomyosarcoma cells” (Cell Death Discovery, 2019) are described below.

Each structure is given as a SMILES string.

Usually Tmax stands for the time from dosing to the highest level. For orientation: Cmax means the maximum level reached in the sampled fluid or tissue. For orientation: Vd means the apparent volume that relates the amount in the body to the concentration in plasma or blood. A high value points to wide distribution into tissue.

Data set [1] has as its system phosphorylated RIP3 and MLKL. The experiment in a line: Western blot of necroptosis markers (preliminary, data not shown). Format: cell-based. In general terms: A western blot detects proteins with antibodies after separation by electrophoresis.
In data set [2] the test system is C2C12 cells. Description: Clonogenic assay, C2C12 myoblasts. Type of data set: cell-based, mouse. The settings on record: 24 h of 0.3 µM. The method, then: Cells were seeded in 6-well plates and treated the following day with IC50, ½ IC50, ¼ IC50 AJ-5 and vehicle. After 24 h, 800–4000 cells were seeded in 35 mm dishes in drug-free medium. Formation of colonies were monitored and after 7–21 days cells were fixed with 3:1 methanol:acetic acid and stained with 0.5% crystal violet (Sigma Aldrich) in 100% methanol. Colonies were imaged and percentage colony area was determined using ImageJ v1.50i[58] and the plugin ColonyArea[59]. Colony area was determined for each drug concentration and expressed as a percentage of vehicletreated control.

The subject of data set [3] is γH2AX, p-ATM, p-Chk2, p-p38, p21 in RH30 and RD cells. Description: Western blotting and immunocytochemistry of DNA damage and stress pathway proteins. Type of data set: cell-based, human. The method, then:
Cells were lysed at 4 °C in whole-cell lysis buffer (0.125 M Tris-HCl pH 6.8, 4% SDS, 0.2% glycerol, 0.1% β-mercaptoethanol and a pinch of bromophenol blue) and boiled for 10 min. Proteins were resolved by SDS-PAGE (6–15% gels) and transferred to Hybond ECL membranes (Amersham, UK). The membranes were incubated with primary antibodies: rabbit polyclonal antibodies to phospho-histone H2A.X (Ser139) (#2577), phospho-chk2 (Thr68) (#221), phospho-p38 MAPK (Thr180/Tyr182) (#9211), cleaved caspase-3 (Asp175) (#9661), PARP (#9542), caspase-9 (#9502), LC3B (#2775), p38 MAPK (#9212), rabbit monoclonal antibody to cleaved caspase-7 (Asp198) (D6H1) (#8438), mouse monoclonal antibodies to phospho-ATM (Ser1981) (D6H9) (#5883), Cyclin B1 (V152) (#4135), Caspase-8 (1C12) (#9746), SQSTM1/p62 (D5L7G) (#88588) from Cell Signaling Technology (Massachusetts, USA); mouse monoclonal antibody to p53 (DO-1) (sc-126), rabbit polyclonal antibodies to p21 (C-19) (sc-397), cyclin A (H-432) (sc-751), cyclin B1 (H-433)(sc-752), PARP-1 (H-250) (sc-7150) from Santa Cruz Biotechnology (Texas, USA); rabbit polyclonal antibody to p38 MAP kinase (M0800) from Sigma Aldrich. After primary antibody incubation, membranes were incubated with goat anti-rabbit or goat anti-mouse HRP-conjugated secondary antibodies (Bio-Rad Laboratories, California, USA). Antibody reactive proteins were visualized by enhanced chemiluminescence using SuperSignal West Pico Chemiluminescent Substrate Kit (Thermo Fisher Scientific) or WesternBright ECL HRP Substrate Kit (Advansta, California, USA). Densitometry readings were obtained using ImageJ v1.50i[58] and protein expression levels were represented as a ratio of protein of interest/p38 loading control normalized to the vehicletreated control sample where appropriate. All blots are representative of at least two independent repeats.
Cells were plated on glass coverslips and treated with IC50 AJ-5 or vehicle. […] For quantification, mean fluorescence was measured from at least 20 fields of view per treatment condition and pooled from three independent repeats.

Data set [4] can be described thus: Pharmacokinetics in whole blood of healthy mice. Type of data set: in vivo, MF1 mice. The settings on record: for Cmax: measured as Pd. The method, then:
Pharmacokinetic parameters of AJ-5 were determined after IV, IP and PO dosing to MF1 nude mice randomly divided into groups. AJ-5 was prepared in the respective formulations immediately prior to dosing. For the IV group, the compound was made up in a mixture of 10% DMSO and 90% of an IV mixture, which consisted of 60% propylene glycol, 10% ethanol and 30% polyethylene glycol. For the PO group, AJ-5 was dissolved in DMSO and a hydroxypropylmethylcellulose solution (0.5% in water) containing 0.2% Tween 80 in a ratio of 1:9. For the IP group, AJ-5 was dissolved in 10% DMSO and 90% phosphate buffer solution. Mice were permitted access to food and water ad libitum. AJ-5 was administered (100 μL) by oral gavage at a dose of 20 mg/kg (n = 3), intravenously into the penile dorsal vein at a dose of 2 mg/kg (n = 2) and intraperitoneally at a dose of 2 mg/kg (n = 3).
Blood samples (20 μL per sample) were collected by tail tip bleeding in lithium heparin tubes at predetermined time points to evaluate the kinetic profile over 24 h. Samples were stored at −80 °C until analysis. Blood samples together with calibration standards and quality controls were quantified using inductively coupled plasma mass spectrometry. All results reported are for palladium (Pd). Pharmacokinetic parameters of the AJ-5 complex were determined using non-compartmental analysis in PK Solutions 2.0 (Summit Research Systems, Montrose CO, USA).

As to `CC(C)c1cccc(C(C)C)c1[N+]1=Cc2cccc[c]2[Pd-2]1([Cl])[P+](CC[P+](c1ccccc1)(c1ccccc1)[Pd-2]1([Cl])[c]2ccccc2C=[N+]1c1c(C(C)C)cccc1C(C)C)(c1ccccc1)c1ccccc1` (stereo not drawn) [AJ-5], in data set [1], the “Active (phosphorylated) MLKL” value is reported as “increased levels” and the “Phosphorylated RIP3” value is listed as “increase”. The “Ability of C2C12 myoblasts to survive and proliferate (colony area)” value in data set [2] is given as “not significantly hindered”. For the same molecule, the γH2AX levels entry in data set [3] (0.1 µM or IC50, 24 and 48 h, western blotting) is recorded as “dose-dependent increase”. The p21 levels result in data set [3] (IC50 concentrations, pronounced after 24 h) was “increased”. For the same molecule, the “Levels of phosphorylated ATM, CHK2 and p38” value in data set [3] (western blotting) is “increased levels”. Further, in data set [4] (IP 2 mg/kg), the “AUC0-∞” value came out at 88 ± 67 µmol·min/L, the BA stood at 49 ± 38%, the Tmax is recorded as 4.0 ± 0.00 h and the “area under the curve” value is recorded as 88 min.µM/L. Further, in data set [4] (IP 2 mg/kg), the highest level (Cmax) was 30 ± 10 nM. For the same molecule, in data set [4] (IV 2 mg/kg), the “AUC0-∞” value stood at 179 ± 12 µmol·min/L, the CL turned out to be 9.2 mL/min/kg and the volume of distribution (Vd) is on record as 8.8 L/kg. The same molecule yielded a t1/2 in data set [4] (IV 2 mg/kg, 2 mg/kg) of 11.2 ± 4.8 h. Also, in data set [4] (PO 20 mg/kg), the “AUC0-∞” value is 11 ± 2 µmol·min/L, the BA was found to be 1 ± 0.1%, the Tmax turned out to be 0.8 ± 0.3 h and the “area under the curve” value is reported as 11 min.µM/L. This molecule had a Cmax in data set [4] (PO 20 mg/kg) of 6 ± 7 nM. The “Exposure after IP 2 mg/kg compared to PO 20 mg/kg” value in data set [4] (ratio of AUC) is reported as “eight-fold higher”.
